Measurements from PMC9780888, “4-Isobutylmethcathinone—A Novel Synthetic Cathinone with High In Vitro Cytotoxicity and Strong Receptor Binding Preference of Enantiomers” (Pharmaceuticals, 2022).
Counter-ions that a name gives are not always drawn.

Target: T1, dopamine receptor DAR4 (Homo sapiens, UniProt P21917)
T1 construct: host or cells: HTLA (HEK 293-derived)
T1 sequence (P21917 1-419): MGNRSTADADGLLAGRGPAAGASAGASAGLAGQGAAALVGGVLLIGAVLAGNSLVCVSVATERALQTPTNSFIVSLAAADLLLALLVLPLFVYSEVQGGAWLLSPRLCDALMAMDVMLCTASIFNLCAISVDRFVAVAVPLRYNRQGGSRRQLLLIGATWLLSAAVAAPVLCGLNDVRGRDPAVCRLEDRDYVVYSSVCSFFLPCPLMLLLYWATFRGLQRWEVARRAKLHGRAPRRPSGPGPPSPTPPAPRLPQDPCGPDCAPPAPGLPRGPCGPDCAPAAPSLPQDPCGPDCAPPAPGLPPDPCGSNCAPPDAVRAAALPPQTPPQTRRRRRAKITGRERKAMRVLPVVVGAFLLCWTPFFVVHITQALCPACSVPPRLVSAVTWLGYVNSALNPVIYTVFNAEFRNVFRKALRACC
Test: PRESTO-Tango β-arrestin 2 recruitment assay, DAR4
Format: cell-based
Conditions: DAR4, 0-500 nM
From the text: However, binding to a specific receptor/transporter and, thus, the mechanism of action of a given cathinone always depends on the specific structure of the evaluated compound [37]. In this study, the binding activity of IBMcat and its enantiomers was verified by PRESTO-Tango (parallel receptor expression and screening via transcriptional output, with transcriptional activation following arrestin-2 translocation) assay using the HTLA cell line stably producing β-arrestin-2 in a fusion with TEV and luciferase production driven by tTA. For this purpose, the HTLA cells were transiently transfected with plasmid DNA encoding the dopamine receptors type 1-4 (DAR1-4), which also contain the TEV protease cleavage site followed by tTA at the 3’-end (DAR1-Tango, DAR2-Tango, DAR3-Tango, DAR4-Tango). In the case of the receptor activation by a ligand, in transfected cells, the receptor is desensitized by β-arrestin fused to TEV protease. This brings the TEV protease close to the site that specifically cleaves and, thus, the transcription factor can be cleaved. The transcription factor then translocates to the cell nucleus, in which it triggers the transcription of the target gene for luciferase production which can be determined by the light emitted from luciferin conversion to oxyluciferin. Here, the pronounced luminescence was recorded for all DAR1-4 types in HTLA cells treated with IBMCat and its enantiomers (Figure 8).
The HTLA cell line was used for the PRESTO-Tango β-arrestin recruitment assay. […]
The transfected HTLA cells were incubated for 24 h, and then 1 × 10^4 cells were seeded per well of a white 96-well clear bottom plate (Brand, Germany) in 40 μL of DMEM with 1% charcoal-stripped FBS (Thermo Fisher Scientific, USA). […] After 5 min., the luminescence was measured using a multi-mode microplate reader SpectraMax iD5 (Molecular Devices, San Jose, CA, USA) measuring the entire wavelength spectrum. All samples were measured in quadruplicates. The data were evaluated by Prism 7 software (GraphPad, San Jose, CA, USA).

Structure (SMILES)	maximum increase in RLU compared to untreated control [fold]
CNC(C)C(=O)c1ccc(CC(C)C)cc1.Cl (stereo not drawn) [IBMcat, 4-isobutylmethcathinone hydrochloride]	2
CN[C@H](C)C(=O)c1ccc(CC(C)C)cc1 [R-IBMCat]	1.5
CN[C@@H](C)C(=O)c1ccc(CC(C)C)cc1 [S-IBMCat, (S)-4-isobutylmethcathinone hydrochloride]	2
